Source: EP4529915A1, “LIPOSOMAL PREPARATIONS FOR USE IN TREATING CANCER” (DG-Nika AG, priority 2023, dated 2025)
Where two headings read alike, the source gives them in different places.

What was measured:
[1] = Dissolution of lomustine in aqueous cyclodextrin solution (solubility); assay type: physicochemical
Description: However, they made an unexpected discovery that a methyl-β-CD (methyl-β-cyclodextrin) solution was able to dissolve lomustine crystals to the aqueous phase within a few seconds. They determined that the mechanism of this process is mostly related to co-dissolution rather than the formation of an inclusion complex as is often the case. In this respect, the formation of an inclusion complex usually takes from a few to several hours and requires constant mixing, heating and the use of a co-solvent such as ethanol or methanol.
The present invention provides a method of preparing a liposomal form of lomustine by (i) producing its aqueous solution of high concentration and (ii) then encapsulating it in the aqueous space of liposomes. Thanks to the use of selected cyclodextrins it is possible to obtain a high concentration of lomustine in water of ~20 mg / ml. The normal concentration of lomustine is not more than 0.11 mg/ml when no additives are used. This method makes it possible to encapsulate lomustine in the water space of liposomes in the form of its solution in water or/and inclusion complex with cyclodextrins, or to obtain the effect of co-dissolving lomustine and cyclodextrin in an aqueous solution. The main advantage of this solution is to limit the crystallization and escape of the drug from the liposomes by transferring it to an aqueous solution using not organic solvents such as ethanol, but various organic substances that can be administered intravenously without harming the patient and not damaging the liposomes as is the case with high concentrations of ethanol needed to obtain a high concentration of lomustine in water.
For this reason, they were looking for a way to effectively encapsulate the drug in the aqueous space of liposomes as a real solution. While searching for substances that could potentially enable the transfer of lomustine from its crystals to the aqueous phase, inventors unexpectedly discovered that a methyl-β-CD solution dissolved lomustine within a few seconds. […]

[2] = cited from earlier work
[3] = in water, no additives used; cited from earlier work

SMILES: O=NN(CCCl)C(=O)NC1CCCCC1 [lomustine]
- concentration of lomustine in solution ([1]; 25% methyl-β-CD solution, room temperature (R.T.)): at least 20 mg/ml
- time for dissolution of lomustine crystals to the aqueous phase ([1]; methyl-β-CD solution, room temperature): a few seconds
- concentration of lomustine in water ([1]; with selected cyclodextrins): ~ 20 mg / ml
- metabolites remaining in the body ([2]; 5 days after administration): 15-20%
- time until active metabolites appear in substantial concentrations in CSF ([2]; after oral administration): ≤ 30 min
- concentration of metabolites in the cerebrospinal fluid relative to plasma ([2]; in vivo): 150%
- cyclohexyl moiety of lomustine bound to plasma proteins ([2]; in vivo): About 600
- second phase plasma half-life ([2]; in vivo): 24 to 48 h
- detection of lomustine in cerebral spinal fluid (CSF) ([2]; oral, parent drug): not detectable
- bioavailability ([2]; orally administered): very low
- biotransformation half-life ([2]; throughout the body): less than 1 hour
- dose of the drug excreted as metabolites in the urine ([2]; within 24 hours): about half
- dose of the drug excreted as metabolites in the urine ([2]; within 4 days): less than 75%
- normal concentration of lomustine [3]: not more than 0.11 mg/ml
